pEC50: −log10 of the molar value.
These compounds were tested on HT-29 cells (assay: HT29 Cells 0FBS Assay In Vitro (TNF-α/SMAC mimetic/zVAD-FMK induced necroptosis, CellTiter-Glo cell viability)). Conditions: Homo sapiens; HT-29 cells, FBS free medium, TNF-α (10 ng/ml), SMAC mimetic (6 uM), zVAD-FMK (10 μM), 20 hours; geometric mean EC50; read-out: Cell activity (EC50) of Compounds 1-116.
Assay type: cell-based
Summary of the method: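 HT-29 cells (5,000/well, seeded overnight) in serum-free McCoy's 5A were stimulated with TNF-α 10 ng/ml, SMAC mimetic 6 μM and zVAD-FMK 10 μM to induce necroptosis. Compound added as 10-point 3-fold series for 20 h at 37° C. CellTiter-Glo luminescence gives viability; EC50 is geometric mean of duplicate dose-responses.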

Row | SMILES | pEC50
1 | Cc1nn(CC(=O)N2CCOCC2)c(C)c1-c1cc(OC2CN(C(=O)N3N=CC[C@H]3c3cc(F)cc(F)c3)C2)c(F)cn1 [compound 96, (S)-2-(4-(4-((1-(5-(3,5-difluorophenyl)-4,5-dihydro-1H-pyrazole-1-carbonyl)azetidin-3-yl)oxy)-5-fluoropyridin-2-yl)-3,5-dimethyl-1H-pyrazol-1-yl)-1-morpholinoethan-1-one] | 7.00 to 10.00
2 | CC(C)C(=O)Nc1cnn(C)c1-c1cc(OC2CN(C(=O)N3N=CC[C@H]3c3cc(F)cc(F)c3)C2)c(F)cn1 [compound 59, (S)—N-(5-(4-((1-(5-(3,5-difluorophenyl)-4,5-dihydro-1H-pyrazole-1-carbonyl)azetidin-3-yl)oxy)-5-fluoropyridin-2-yl)-1-methyl-1H-pyrazol-4-yl)isobutyramide] | 7.00 to 10.00
3 | Cc1n[nH]c(C)c1-c1cc(OC2CN(C(=O)N3N=CC[C@H]3c3cc(F)cc(F)c3)C2)c(F)cn1 [compound 92, (S)-(5-(3,5-difluorophenyl)-4,5-dihydro-1H-pyrazol-1-yl)(3-((2-(3,5-dimethyl-1H-pyrazol-4-yl)-5-fluoropyridin-4-yl)oxy)azetidin-1-yl)methanone] | 7.00 to 10.00
4 | COCc1cnn(C)c1-c1cc(OC2CN(C(=O)N3N=CC[C@H]3c3cc(F)cc(F)c3)C2)c(F)cn1 [compound 80, (S)-(5-(3,5-difluorophenyl)-4,5-dihydro-1H-pyrazol-1-yl)(3-((5-fluoro-2-(4-(methoxymethyl)-1-methyl-1H-pyrazol-5-yl)pyridin-4-yl)oxy)azetidin-1-yl)methanone] | 7.00 to 10.00
5 | Cc1cnn(C)c1-c1cc(OC2CN(C(=O)N3N=CC[C@H]3c3cc(F)cc(F)c3)C2)c(F)cn1 [compound 43, (S)-(5-(3,5-difluorophenyl)-4,5-dihydro-1H-pyrazol-1-yl)(3-((2-(1,4-dimethyl-1H-pyrazol-5-yl)-5-fluoropyridin-4-yl)oxy)azetidin-1-yl)methanone] | 7.00 to 10.00
6 | Cn1ncc(C(N)=O)c1-c1cc(OC2CN(C(=O)N3N=CC[C@H]3c3cc(F)cc(F)c3)C2)c(F)cn1 [compound 66, (S)-5-(4-((1-(5-(3,5-difluorophenyl)-4,5-dihydro-1H-pyrazole-1-carbonyl)azetidin-3-yl)oxy)-5-fluoropyridin-2-yl)-1-methyl-1H-pyrazole-4-carboxamide] | 7.00 to 10.00
7 | Cc1n[nH]cc1-c1cc(OC2CN(C(=O)N3N=CC[C@H]3c3cc(F)cc(F)c3)C2)c(F)cn1 [compound 85, (S)-(5-(3,5-difluorophenyl)-4,5-dihydro-1H-pyrazol-1-yl)(3-((5-fluoro-2-(3-methyl-1H-pyrazol-4-yl)pyridin-4-yl)oxy)azetidin-1-yl)methanone] | 7.00 to 10.00
8 | COCCn1cc(-c2cc(OC3CN(C(=O)N4N=CC[C@H]4c4cc(F)cc(F)c4)C3)c(F)cn2)c(C)n1 [compound 86, (S)-(5-(3,5-difluorophenyl)-4,5-dihydro-1H-pyrazol-1-yl)(3-((5-fluoro-2-(1-(2-methoxyethyl)-3-methyl-1H-pyrazol-4-yl)pyridin-4-yl)oxy)azetidin-1-yl)methanone] | 7.00 to 10.00
9 | Cc1nnc(-c2ccc(F)c(OC3CN(C(=O)N4N=CC[C@H]4c4cc(F)cc(F)c4)C3)n2)s1 [compound 24, (S)-(5-(3,5-difluorophenyl)-4,5-dihydro-1H-pyrazol-1-yl)(3-((3-fluoro-6-(5-methyl-1,3,4-thiadiazol-2-yl)pyridin-2-yl)oxy)azetidin-1-yl)methanone] | 7.00 to 10.00
10 | Cn1ncc(C#N)c1-c1ncc(F)c(OC2CN(C(=O)N3N=CC[C@H]3c3cc(F)cc(F)c3)C2)n1 [compound 48, (S)-5-(4-((1-(5-(3,5-difluorophenyl)-4,5-dihydro-1H-pyrazole-1-carbonyl)azetidin-3-yl)oxy)-5-fluoropyrimidin-2-yl)-1-methyl-1H-pyrazole-4-carbonitrile] | 7.00 to 10.00

Same assay, conditions: Homo sapiens; HT-29 cells, FBS free medium, TNF-α (10 ng/ml), SMAC mimetic (6 uM), zVAD-FMK (10 μM), 20 hours; geometric mean EC50; read-out: Cell activity (EC50) of Compounds 117-281

Row | SMILES | pEC50
11 | Cc1cn(C)c(=O)n1-c1cc(OC2CN(C(=O)N3N=CC[C@H]3c3cc(F)cc(F)c3)C2)c(F)cn1 [compound 238, (S)-3-(4-((1-(5-(3,5-difluorophenyl)-4,5-dihydro-1H-pyrazole-1-carbonyl)azetidin-3-yl)oxy)-5-fluoropyridin-2-yl)-1,4-dimethyl-1,3-dihydro-2H-imidazol-2-one] | 6.00 to 7.00
12 | Cc1nsc(C)c1-c1cc(OC2CN(C(=O)N3N=CC[C@H]3c3cc(F)cc(F)c3)C2)c(F)cn1 [compound 127, (S)-(5-(3,5-difluorophenyl)-4,5-dihydro-1H-pyrazol-1-yl)(3-((2-(3,5-dimethylisothiazol-4-yl)-5-fluoropyridin-4-yl)oxy)azetidin-1-yl)methanone] | 7.00 to 10.00
13 | CCc1nn(-c2cc(OC3CN(C(=O)N4N=CC[C@H]4c4cc(F)cc(F)c4)C3)c(F)cn2)c(C)c1C(N)=O [compound 281, (S)-1-(4-((1-(5-(3,5-difluorophenyl)-4,5-dihydro-1H-pyrazole-1-carbonyl)azetidin-3-yl)oxy)-5-fluoropyridin-2-yl)-3-ethyl-5-methyl-1H-pyrazole-4-carboxamide] | 7.00 to 10.00
14 | CN(C)CC(=O)Nc1cnn(C)c1-c1cc(OC2CN(C(=O)N3N=CC[C@H]3c3cc(F)cc(F)c3)C2)c(F)cn1 [compound 122, (S)—N-(5-(4-((1-(5-(3,5-difluorophenyl)-4,5-dihydro-1H-pyrazole-1-carbonyl)azetidin-3-yl)oxy)-5-fluoropyridin-2-yl)-1-methyl-1H-pyrazol-4-yl)-2-(dimethylamino)acetamide] | 7.00 to 10.00
15 | Cc1c(Cl)nn(C)c1-c1cc(OC2CN(C(=O)N3N=CC[C@H]3c3cc(F)cc(F)c3)C2)c(F)cn1 [compound 175, (S)-(3-((2-(3-chloro-1,4-dimethyl-1H-pyrazol-5-yl)-5-fluoropyridin-4-yl)oxy)azetidin-1-yl)(5-(3,5-difluorophenyl)-4,5-dihydro-1H-pyrazol-1-yl)methanone] | 7.00 to 10.00
16 | Cc1nn(C2CCOCC2)c(C)c1-c1cc(OC2CN(C(=O)N3N=CC[C@H]3c3cc(F)cc(F)c3)C2)c(F)cn1 [compound 157, (S)-(5-(3,5-difluorophenyl)-4,5-dihydro-1H-pyrazol-1-yl)(3-((2-(3,5-dimethyl-1-(tetrahydro-2H-pyran-4-yl)-1H-pyrazol-4-yl)-5-fluoropyridin-4-yl)oxy)azetidin-1-yl)methanone] | 7.00 to 10.00
17 | Cc1nn(C2COC2)c(C)c1-c1cc(OC2CN(C(=O)N3N=CC[C@H]3c3cc(F)cc(F)c3)C2)c(F)cn1 [compound 130, (S)-(5-(3,5-difluorophenyl)-4,5-dihydro-1H-pyrazol-1-yl)(3-((2-(3,5-dimethyl-1-(oxetan-3-yl)-1H-pyrazol-4-yl)-5-fluoropyridin-4-yl)oxy)azetidin-1-yl)methanone] | 7.00 to 10.00
18 | Cc1nn(-c2cc(OC3CN(C(=O)N4N=CC[C@H]4c4cc(F)cc(F)c4)C3)c(F)cn2)c(C)c1CN1CCCC1=O [compound 274, (S)-1-((1-(4-((1-(5-(3,5-difluorophenyl)-4,5-dihydro-1H-pyrazole-1-carbonyl)azetidin-3-yl)oxy)-5-fluoropyridin-2-yl)-3,5-dimethyl-11H-pyrazol-4-yl)methyl)pyrrolidin-2-one] | 7.00 to 10.00
19 | CC(=O)Nc1c(C)nn(-c2cc(OC3CN(C(=O)N4N=CC[C@H]4c4cc(F)cc(F)c4)C3)c(F)cn2)c1C [compound 140, (S)—N-(1-(4-((1-(5-(3,5-difluorophenyl)-4,5-dihydro-1H-pyrazole-1-carbonyl)azetidin-3-yl)oxy)-5-fluoropyridin-2-yl)-3,5-dimethyl-1H-pyrazol-4-yl)acetamide] | 7.00 to 10.00
20 | CNc1nn(C)c(-c2cc(OC3CN(C(=O)N4N=CC[C@H]4c4cc(F)cc(F)c4)C3)c(F)cn2)c1C [compound 125, (S)-(5-(3,5-difluorophenyl)-4,5-dihydro-1H-pyrazol-1-yl)(3-((2-(1,4-dimethyl-3-(methylamino)-1H-pyrazol-5-yl)-5-fluoropyridin-4-yl)oxy)azetidin-1-yl)methanone] | 7.00 to 10.00
21 | Cc1nc(C(N)=O)sc1-c1cc(OC2CN(C(=O)N3N=CC[C@H]3c3cc(F)cc(F)c3)C2)c(F)cn1 [compound 189, (S)-5-(4-((1-(5-(3,5-difluorophenyl)-4,5-dihydro-1H-pyrazole-1-carbonyl)azetidin-3-yl)oxy)-5-fluoropyridin-2-yl)-4-methylthiazole-2-carboxamide] | 7.00 to 10.00
22 | CCc1nn(-c2cc(OC3CN(C(=O)N4N=CC[C@H]4c4cc(F)cc(F)c4)C3)c(F)cn2)c(C)c1C#N [compound 124, (S)-1-(4-((1-(5-(3,5-difluorophenyl)-4,5-dihydro-1H-pyrazole-1-carbonyl)azetidin-3-yl)oxy)-5-fluoropyridin-2-yl)-3-ethyl-5-methyl-1H-pyrazole-4-carbonitrile] | 7.00 to 10.00
23 | CN(C)CCNc1cnn(C)c1-c1cc(OC2CN(C(=O)N3N=CC[C@H]3c3cc(F)cc(F)c3)C2)c(F)cn1 [compound 119, (S)-(5-(3,5-difluorophenyl)-4,5-dihydro-1H-pyrazol-1-yl)(3-((2-(4-((2-(dimethylamino)ethyl)amino)-1-methyl-1H-pyrazol-5-yl)-5-fluoropyridin-4-yl)oxy)azetidin-1-yl)methanone] | 6.00 to 7.00
24 | Cc1nn(-c2cc(OC3CN(C(=O)N4N=CC[C@H]4c4cc(F)cc(F)c4)C3)c(F)cn2)c(C)c1C(=O)N[C@H]1C[C@H](O)C1 [compound 255, 1-(4-((1-((S)-5-(3,5-difluorophenyl)-4,5-dihydro-1H-pyrazole-1-carbonyl)azetidin-3-yl)oxy)-5-fluoropyridin-2-yl)-N-((1r,3r)-3-hydroxycyclobutyl)-3,5-dimethyl-1H-pyrazole-4-carboxamide] | 7.00 to 10.00

Source: patent US12655125B2 (SIRONAX LTD., priority 2020, dated 2026)
